According to ChEMBL document CHEMBL5465560, “Selectivity Literature for EUbOPEN Chemogenomic Library” (2024):

Key:
[1] = biological target: T1, Serine/threonine-protein kinase Nek11 (Homo sapiens) (UniProt Q8NG66); details: at 10 µM
T1 sequence (whole entry): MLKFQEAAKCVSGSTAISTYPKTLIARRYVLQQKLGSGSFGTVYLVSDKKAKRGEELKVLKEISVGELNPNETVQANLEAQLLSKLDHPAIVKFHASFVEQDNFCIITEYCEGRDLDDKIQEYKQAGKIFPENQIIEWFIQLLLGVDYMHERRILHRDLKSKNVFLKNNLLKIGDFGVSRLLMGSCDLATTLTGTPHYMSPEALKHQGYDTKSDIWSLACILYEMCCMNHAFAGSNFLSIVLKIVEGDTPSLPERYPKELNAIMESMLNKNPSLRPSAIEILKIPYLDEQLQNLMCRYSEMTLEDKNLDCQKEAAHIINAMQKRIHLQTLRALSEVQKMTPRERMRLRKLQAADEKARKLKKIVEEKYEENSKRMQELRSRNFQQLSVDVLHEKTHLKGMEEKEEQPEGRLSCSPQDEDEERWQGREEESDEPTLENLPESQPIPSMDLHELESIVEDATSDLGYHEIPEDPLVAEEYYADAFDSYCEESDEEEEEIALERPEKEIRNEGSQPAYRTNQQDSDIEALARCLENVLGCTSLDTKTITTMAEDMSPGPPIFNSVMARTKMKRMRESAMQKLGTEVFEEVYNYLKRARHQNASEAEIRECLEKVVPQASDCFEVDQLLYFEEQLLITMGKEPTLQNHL

[2] = biological target: T2, Protein kinase C iota type (Homo sapiens) (UniProt P41743); assay: Selectivity interaction (KinomeScan (DiscoverX)) EUB0001049a PRKCI; details: at 1 µM
T2 sequence (whole entry): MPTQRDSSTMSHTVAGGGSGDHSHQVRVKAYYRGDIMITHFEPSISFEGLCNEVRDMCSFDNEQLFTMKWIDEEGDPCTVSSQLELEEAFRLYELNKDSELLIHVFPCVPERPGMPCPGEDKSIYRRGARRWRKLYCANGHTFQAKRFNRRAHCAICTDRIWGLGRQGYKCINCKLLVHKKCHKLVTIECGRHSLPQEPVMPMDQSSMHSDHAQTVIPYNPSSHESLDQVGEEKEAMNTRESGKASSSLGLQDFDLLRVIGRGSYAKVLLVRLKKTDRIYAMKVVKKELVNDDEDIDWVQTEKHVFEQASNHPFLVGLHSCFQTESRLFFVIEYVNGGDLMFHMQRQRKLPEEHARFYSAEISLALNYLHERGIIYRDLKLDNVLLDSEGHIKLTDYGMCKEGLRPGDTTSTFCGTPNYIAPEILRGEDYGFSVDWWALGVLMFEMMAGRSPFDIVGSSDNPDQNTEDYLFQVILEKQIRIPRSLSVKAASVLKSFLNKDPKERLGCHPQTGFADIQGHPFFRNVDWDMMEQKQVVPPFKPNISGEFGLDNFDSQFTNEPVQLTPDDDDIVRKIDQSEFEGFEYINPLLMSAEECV

[3] = biological target: Dual specificity mitogen-activated protein kinase kinase 1 (Homo sapiens, UniProt Q02750); assay: Selectivity interaction (KinomeScan (DiscoverX)) EUB0001079a MAP2K1; details: at 1 µM
[4] = biological target: T3, 3-phosphoinositide-dependent protein kinase 1 (Homo sapiens) (UniProt O15530); assay: Selectivity interaction (KinomeScan (DiscoverX)) EUB0000045b PDPK1
T3 sequence (whole entry): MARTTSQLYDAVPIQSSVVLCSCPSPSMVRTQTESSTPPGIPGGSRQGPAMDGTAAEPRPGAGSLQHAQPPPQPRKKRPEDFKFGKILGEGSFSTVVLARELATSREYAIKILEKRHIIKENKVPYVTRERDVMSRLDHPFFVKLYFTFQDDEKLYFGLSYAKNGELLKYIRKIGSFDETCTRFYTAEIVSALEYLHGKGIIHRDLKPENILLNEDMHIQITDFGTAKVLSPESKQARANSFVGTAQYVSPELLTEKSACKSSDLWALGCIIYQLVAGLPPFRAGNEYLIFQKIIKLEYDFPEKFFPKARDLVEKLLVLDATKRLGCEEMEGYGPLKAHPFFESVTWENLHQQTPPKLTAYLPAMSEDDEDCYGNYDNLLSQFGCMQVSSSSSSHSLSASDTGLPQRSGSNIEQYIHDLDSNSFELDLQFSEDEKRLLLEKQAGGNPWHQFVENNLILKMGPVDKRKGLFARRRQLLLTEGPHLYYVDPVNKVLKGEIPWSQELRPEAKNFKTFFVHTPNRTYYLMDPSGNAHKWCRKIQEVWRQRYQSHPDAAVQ

[5] = biological target: T4, Eukaryotic elongation factor 2 kinase (Homo sapiens) (UniProt O00418); assay: Selectivity interaction (ActivX KiNativ screen (ex vivo kinase selectivity in human PBMCs)) EUB0001619a EEF2K; format: cell-based; details: PBMC, at 1 µM
T4 sequence (whole entry): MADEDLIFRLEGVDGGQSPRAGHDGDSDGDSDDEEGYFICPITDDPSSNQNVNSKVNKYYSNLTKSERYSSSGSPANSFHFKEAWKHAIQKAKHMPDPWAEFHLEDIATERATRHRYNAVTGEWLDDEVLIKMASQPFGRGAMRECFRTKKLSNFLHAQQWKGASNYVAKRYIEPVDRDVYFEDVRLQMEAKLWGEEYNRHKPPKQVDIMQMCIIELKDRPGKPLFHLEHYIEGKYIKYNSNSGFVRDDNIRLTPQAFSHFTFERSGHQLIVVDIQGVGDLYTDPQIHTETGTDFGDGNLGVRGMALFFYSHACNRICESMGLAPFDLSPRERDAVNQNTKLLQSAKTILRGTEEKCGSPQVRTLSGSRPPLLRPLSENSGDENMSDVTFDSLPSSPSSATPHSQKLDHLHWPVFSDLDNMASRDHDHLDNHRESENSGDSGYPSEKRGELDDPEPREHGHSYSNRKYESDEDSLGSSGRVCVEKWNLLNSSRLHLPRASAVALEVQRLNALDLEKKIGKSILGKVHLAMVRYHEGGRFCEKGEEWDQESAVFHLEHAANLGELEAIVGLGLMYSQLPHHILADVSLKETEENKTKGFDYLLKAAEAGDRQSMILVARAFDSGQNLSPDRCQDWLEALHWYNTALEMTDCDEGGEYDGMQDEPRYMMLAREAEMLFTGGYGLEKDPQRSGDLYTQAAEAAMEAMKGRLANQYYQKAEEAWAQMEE

[6] = biological target: Serine/threonine-protein kinase Nek7 (Homo sapiens) (UniProt Q8TDX7); assay: Selectivity interaction (KinomeScan (DiscoverX)) EUB0000618a NEK7; details: at 10 µM
Chain of Serine/threonine-protein kinase Nek7 (Homo sapiens) (Q8TDX7 whole entry, looked up): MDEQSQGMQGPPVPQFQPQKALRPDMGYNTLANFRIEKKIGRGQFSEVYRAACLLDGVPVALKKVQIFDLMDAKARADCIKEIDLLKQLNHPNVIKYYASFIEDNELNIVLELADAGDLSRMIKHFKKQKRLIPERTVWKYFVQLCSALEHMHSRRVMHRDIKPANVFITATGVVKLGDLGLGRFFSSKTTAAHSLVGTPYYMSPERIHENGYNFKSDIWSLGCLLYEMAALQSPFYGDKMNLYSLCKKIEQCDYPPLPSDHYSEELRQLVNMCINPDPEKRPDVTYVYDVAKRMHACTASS

Chain of Dual specificity mitogen-activated protein kinase kinase 1 (Q02750 whole entry): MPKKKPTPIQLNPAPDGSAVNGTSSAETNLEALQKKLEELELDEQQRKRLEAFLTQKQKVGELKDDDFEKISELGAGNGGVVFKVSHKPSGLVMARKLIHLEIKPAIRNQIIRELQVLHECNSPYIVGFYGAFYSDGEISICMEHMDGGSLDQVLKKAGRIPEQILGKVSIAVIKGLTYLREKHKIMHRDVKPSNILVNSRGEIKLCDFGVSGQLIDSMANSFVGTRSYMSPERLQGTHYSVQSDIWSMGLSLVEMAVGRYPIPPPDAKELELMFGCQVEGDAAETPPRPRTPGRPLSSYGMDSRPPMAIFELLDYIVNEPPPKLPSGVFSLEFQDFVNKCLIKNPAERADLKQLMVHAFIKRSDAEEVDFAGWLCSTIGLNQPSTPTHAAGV

Compound: Cc1cc([C@@H](C)Nc2ccccc2C(=O)O)c2nc(N3CCOCC3)cc(=O)n2c1 [AZD-6482]
- % of control [1]: 100%

Compound: COc1cc(Nc2nc(C)cc(-c3cnn4nc(OC)ccc34)n2)cc(C(F)(F)F)c1
- % of control [2]: 79%

Compound: Nc1cnc(N2CCc3cc(S(=O)(=O)Nc4c(F)cc(Cl)cc4F)cc(N4CCCC4=O)c32)nc1 [TP-020n]
- % of control [3]: 100%

Compound: C=CC(=O)Nc1cc(-n2c(=O)ccc3cnc4ccc(-c5ccc(NS(C)(=O)=O)cc5)cc4c32)ccc1C
- % of control ([4]; at 1 µM): 100%
- % of control ([4]; at 10 µM): 100%

Compound: N#Cc1cccc(-c2c[nH]c3ncnc(N4CCOCC4)c23)c1
- % of inhibition [5]: 3%

Compound: O[C@H]1CC[C@H](Nc2ncc3nc(Nc4c(F)cc(F)cc4F)n([C@H]4CCOC4)c3n2)CC1
- % of control [6]: 95%
